# Data as given in PubChem BioAssay (NCI).
#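 Interpolation was linear, between the two tested concentrations surrounding the appropriate level; five concentrations were tested over 48 hours in 96-well plates. TGI marks complete inhibition of growth.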
# What was measured:
# Assay in all cases: inhibition of tumour cell growth, NCI panel, 48 h
# [1] = test system: SK-MEL-2 melanoma
# [2] = test system: HCT-15 colon
# [3] = test system: UO-31 renal
# [4] = test system: OVCAR-5 ovarian
# [5] = test system: OVCAR-4 ovarian
# [6] = test system: DMS 114 small cell lung
# [7] = test system: EKVX NSCLC
# [8] = test system: SNB-19 CNS
# [9] = test system: UACC-62 melanoma
# [10] = test system: A549 NSCLC
# [11] = test system: NCI-H460 lung
# [12] = test system: SF-539 CNS
# [13] = test system: OVCAR-8 ovarian
# [14] = test system: RXF 393 renal
# [15] = test system: UACC-257 melanoma
# [16] = test system: IGROV1 ovarian
# [17] = test system: SW-620 colon
# [18] = test system: HCC-2998 colon
# [19] = test system: HOP-18 NSCLC
# [20] = test system: SF-268 CNS
# [21] = test system: SK-OV-3 ovarian
# [22] = test system: HCT-116 colon
# [23] = test system: MOLT-4 leukemia
# [24] = test system: M14 melanoma
# [25] = test system: COLO 205 colon
# [26] = test system: HL-60(TB) leukemia
# [27] = test system: M19-MEL melanoma
# [28] = test system: U251 CNS
# [29] = test system: LXFL 529 NSCLC
# [30] = test system: HT29 colon
# [31] = test system: HOP-62 NSCLC
# [32] = test system: 786-0 renal
# [33] = test system: K-562 leukemia
# [34] = test system: MALME-3M melanoma
# [35] = test system: NCI-H522 lung
# [36] = test system: SR leukemia
# [37] = test system: CCRF-CEM leukemia
# [38] = test system: OVCAR-3 ovarian
# [39] = test system: DLD-1 colon
# [40] = test system: LOX IMVI melanoma
# [41] = test system: SNB-78 CNS
# [42] = test system: SNB-75 CNS
# [43] = test system: ACHN renal
# [44] = test system: A498 renal
# [45] = test system: KM12 colon
# [46] = test system: SK-MEL-5 melanoma
# [47] = test system: NCI-H23 lung
# [48] = test system: SK-MEL-28 melanoma
# [49] = test system: TK-10 renal
# [50] = test system: KM20L2 colon
# [51] = test system: SN12C renal
# [52] = test system: DMS 273 small cell lung
# [53] = test system: HOP-92 NSCLC
# [54] = test system: RPMI-8226 leukemia
# [55] = test system: CAKI-1 renal
# [56] = test system: NCI-H226 lung
# [57] = test system: XF 498 CNS
# [58] = test system: SF-295 CNS
# [59] = test system: RXF-631 renal
compound,measurement,setting,value
CCOC(=O)c1cnc2c(ccc3[nH]cccc32)c1=O,TGI,[1],> 100 µM
same,TGI,[2],> 100 µM
same,TGI,[3],> 100 µM
same,TGI,[4],> 100 µM
same,TGI,[5],> 100 µM
same,TGI,[6],> 100 µM
same,TGI,[7],> 100 µM
same,TGI,[8],> 100 µM
same,TGI,[9],> 100 µM
same,TGI,[10],> 100 µM
same,TGI,[11],> 100 µM
same,TGI,[12],> 100 µM
same,TGI,[13],> 100 µM
same,TGI,[14],> 100 µM
same,TGI,[15],> 100 µM
same,TGI,[16],> 100 µM
same,TGI,[17],> 100 µM
same,TGI,[18],> 100 µM
same,TGI,[19],> 100 µM
same,TGI,[20],> 100 µM
same,TGI,[21],> 100 µM
same,TGI,[22],> 100 µM
same,TGI,[23],> 100 µM
same,TGI,[24],> 100 µM
same,TGI,[25],> 100 µM
same,TGI,[26],> 100 µM
same,TGI,[27],> 100 µM
same,TGI,[28],> 100 µM
same,TGI,[29],> 100 µM
same,TGI,[30],> 100 µM
same,TGI,[31],> 100 µM
same,TGI,[32],> 100 µM
same,TGI,[33],> 100 µM
same,TGI,[34],> 100 µM
same,TGI,[35],> 100 µM
same,TGI,[36],> 100 µM
same,TGI,[37],> 100 µM
same,TGI,[38],> 100 µM
same,TGI,[39],> 100 µM
same,TGI,[40],> 100 µM
same,TGI,[41],> 100 µM
same,TGI,[42],> 100 µM
same,TGI,[43],> 100 µM
same,TGI,[44],> 100 µM
same,TGI,[45],> 100 µM
same,TGI,[46],> 100 µM
same,TGI,[47],> 100 µM
same,TGI,[48],> 100 µM
same,TGI,[49],> 100 µM
same,TGI,[50],> 100 µM
same,TGI,[51],> 100 µM
same,TGI,[52],> 100 µM
Nc1nnc(CCC(=O)Nc2cc(Cl)ccc2Cl)n1N,TGI,[1],> 100 µM
same,TGI,[2],> 100 µM
same,TGI,[53],> 100 µM
same,TGI,[3],> 100 µM
same,TGI,[4],> 100 µM
same,TGI,[54],> 100 µM
same,TGI,[5],> 100 µM
same,TGI,[6],> 100 µM
same,TGI,[7],> 100 µM
same,TGI,[8],> 100 µM
same,TGI,[9],> 100 µM
same,TGI,[10],> 100 µM
same,TGI,[55],> 100 µM
same,TGI,[11],> 100 µM
same,TGI,[12],> 100 µM
same,TGI,[13],> 100 µM
same,TGI,[14],> 100 µM
same,TGI,[15],> 100 µM
same,TGI,[16],> 100 µM
same,TGI,[17],> 100 µM
same,TGI,[18],> 100 µM
same,TGI,[56],> 100 µM
same,TGI,[19],> 100 µM
same,TGI,[20],> 100 µM
same,TGI,[21],> 100 µM
same,TGI,[22],> 100 µM
same,TGI,[23],> 100 µM
same,TGI,[24],> 100 µM
same,TGI,[25],> 100 µM
same,TGI,[26],> 100 µM
same,TGI,[27],> 100 µM
same,TGI,[57],> 100 µM
same,TGI,[28],> 100 µM
same,TGI,[58],> 100 µM
same,TGI,[29],> 100 µM
same,TGI,[30],> 100 µM
same,TGI,[31],> 100 µM
same,TGI,[59],> 100 µM
same,TGI,[33],> 100 µM
same,TGI,[34],> 100 µM
same,TGI,[35],> 100 µM
same,TGI,[36],> 100 µM
same,TGI,[37],> 100 µM
same,TGI,[38],> 100 µM
same,TGI,[39],> 100 µM
same,TGI,[40],> 100 µM
same,TGI,[41],> 100 µM
same,TGI,[42],> 100 µM
same,TGI,[43],> 100 µM
same,TGI,[44],> 100 µM
same,TGI,[45],> 100 µM
same,TGI,[46],> 100 µM
same,TGI,[47],> 100 µM
same,TGI,[48],> 100 µM
same,TGI,[49],> 100 µM
same,TGI,[50],> 100 µM
same,TGI,[51],> 100 µM
same,TGI,[52],> 100 µM
N#C/C(=C\c1cc(O)ccc1O)C(N)=O,TGI,[1],> 100 µM
same,TGI,[2],> 100 µM
same,TGI,[53],> 100 µM
same,TGI,[3],> 100 µM
same,TGI,[4],> 100 µM
same,TGI,[54],65.6 µM
same,TGI,[5],> 100 µM
same,TGI,[6],70.9 µM
same,TGI,[7],> 100 µM
same,TGI,[8],> 100 µM
same,TGI,[9],88.1 µM
same,TGI,[10],> 100 µM
same,TGI,[55],> 100 µM
same,TGI,[11],> 100 µM
same,TGI,[12],> 100 µM
same,TGI,[13],> 100 µM
same,TGI,[14],86.6 µM
same,TGI,[15],> 100 µM
same,TGI,[16],> 100 µM
same,TGI,[17],> 100 µM
same,TGI,[18],> 100 µM
same,TGI,[56],95.4 µM
same,TGI,[20],> 100 µM
same,TGI,[21],> 100 µM
same,TGI,[22],> 100 µM
same,TGI,[23],60.1 µM
same,TGI,[24],> 100 µM
same,TGI,[25],> 100 µM
same,TGI,[26],34.6 µM
same,TGI,[27],> 100 µM
same,TGI,[57],> 100 µM
same,TGI,[28],> 100 µM
same,TGI,[58],> 100 µM
same,TGI,[29],> 100 µM
same,TGI,[30],> 100 µM
same,TGI,[31],> 100 µM
same,TGI,[32],> 100 µM
same,TGI,[59],> 100 µM
same,TGI,[33],> 100 µM
same,TGI,[34],> 100 µM
same,TGI,[35],41 µM
same,TGI,[37],53.9 µM
same,TGI,[38],> 100 µM
same,TGI,[39],> 100 µM
same,TGI,[41],> 100 µM
same,TGI,[42],90.8 µM
same,TGI,[43],> 100 µM
same,TGI,[44],> 100 µM
same,TGI,[45],> 100 µM
same,TGI,[47],> 100 µM
same,TGI,[48],> 100 µM
same,TGI,[49],> 100 µM
same,TGI,[50],> 100 µM
same,TGI,[51],> 100 µM
same,TGI,[52],> 100 µM
C[C@@H]1OC2(O)[C@H]3CCCN3S(=O)(=O)CCN2C1=O (stereo not given in full),TGI,[2],> 100 µM
same,TGI,[53],> 100 µM
same,TGI,[3],> 100 µM
same,TGI,[4],> 100 µM
same,TGI,[54],> 100 µM
same,TGI,[5],> 100 µM
same,TGI,[7],> 100 µM
same,TGI,[8],> 100 µM
same,TGI,[9],> 100 µM
same,TGI,[10],> 100 µM
same,TGI,[55],> 100 µM
same,TGI,[11],> 100 µM
same,TGI,[12],> 100 µM
same,TGI,[13],> 100 µM
same,TGI,[14],> 100 µM
same,TGI,[15],> 100 µM
same,TGI,[16],> 100 µM
same,TGI,[17],> 100 µM
same,TGI,[18],> 100 µM
same,TGI,[56],> 100 µM
same,TGI,[19],> 100 µM
same,TGI,[20],> 100 µM
same,TGI,[21],> 100 µM
same,TGI,[22],> 100 µM
same,TGI,[23],> 100 µM
same,TGI,[24],> 100 µM
same,TGI,[25],> 100 µM
same,TGI,[26],> 100 µM
same,TGI,[27],> 100 µM
same,TGI,[28],> 100 µM
same,TGI,[58],> 100 µM
same,TGI,[29],> 100 µM
same,TGI,[30],> 100 µM
same,TGI,[31],> 100 µM
same,TGI,[32],> 100 µM
same,TGI,[59],> 100 µM
same,TGI,[33],> 100 µM
same,TGI,[34],> 100 µM
same,TGI,[35],> 100 µM
same,TGI,[36],> 100 µM
same,TGI,[37],> 100 µM
same,TGI,[38],> 100 µM
same,TGI,[39],> 100 µM
same,TGI,[40],> 100 µM
same,TGI,[41],> 100 µM
same,TGI,[42],> 100 µM
same,TGI,[43],> 100 µM
same,TGI,[44],> 100 µM
same,TGI,[45],> 100 µM
same,TGI,[46],> 100 µM
same,TGI,[47],> 100 µM
same,TGI,[48],> 100 µM
same,TGI,[49],> 100 µM
same,TGI,[50],> 100 µM
same,TGI,[51],> 100 µM
